Like-named read-outs stand apart in the source and are kept apart here.
Tests used:
Format in all cases: biochemical
MMP-3 = target: T1, MMP-3 (Homo sapiens, UniProt P08254); experiment: P218 quenched fluorescence assay (MMP Microfluorometric Profiling Assay), MMP-3; settings: for IC50: P218 substrate 6 µM, 25 min at 37 °C, pH 6.5; for inhibition at 5 µM: inhibitor at 5 µM, given as I = x %
T1 construct: made in house; host or cells: CHO cells
From the text: (§1) The P218 quenched fluorescence assay (Microfluorometric Profiling Assay) is a modification of that originally described by C. G. Knight et al., FEBS Letters, 296, 263-266 (1992) for a related substrate and a variety of matrix metalloproteinases (MMPs) in cuvettes. The assay was run with each exemplary compound of the invention and the three MMPs, MMP-3, MMP-9 and MMP-2, analyzed in parallel, adapted as follows for a 96-well microtitre plate and a Hamilton AT® workstation.
(§2) P218 is a synthetic substrate containing a 4-acetyl-7-methoxycoumarin (MCA) group in the N-terminal position and a 3-(2,4-dinitrophenyl)-(L)-2,3-diaminopropionyl (DPA) group internally. This is a modification of a peptide reported by Knight (1992) that was used as a substrate for matrix metalloproteinases. Once the P218 peptide is cleaved (putative clip site at the Ala-Leu bond), the fluorescence of the MCA group can be detected on a fluorometer with excitation at 328 nm and emission at 393 nm. P218 is currently being produced by BACHEM Bioscience, Inc. exclusively for the Bayer Corp. P218 has the structure: H-MCA-Pro-Lys-Pro-Leu-Ala-Leu-DPA-Ala-Arg-NH2 (MW 1332.2)
Recombinant Human CHO Pro-MMP-3: Human CHO pro-stromelysin-257 (pro-MMP-3) was expressed and purified as described by T. J. Housley et al., J. Biol. Chem., 268, 4481-4487 (1993).
Activation of Pro-MMP-3: Pro-MMP-3 at 1.72 µM (100 µg/mL) in an MMP-3 activation buffer consisting of 5 mM Tris at pH 7.5, 5 mM CaCl2, 25 mM NaCl, and 0.005% Brij-35 was activated by incubation with TPCK (N-tosyl-(L)-phenylalanine chloromethyl ketone) trypsin (1:100 w/w to pro-MMP-3) at 25 °C for 30 min. The reaction was stopped by addition of soybean trypsin inhibitor (SBTI; 5:1 w/w to trypsin concentration).
(§3) Hamilton Microlab AT Plus®: The MMP-profiling assay was performed robotically using a Hamilton MicroLab AT Plus®. The Hamilton was programmed to: (1) serially dilute up to 11 potential inhibitors automatically using a 2.5 mM stock solution of the inhibitor in 100% DMSO; (2) distribute substrate followed by inhibitor into a 96-well Cytofluor plate; and (3) add a single enzyme to the plate with mixing to start the reaction. Subsequent plates for each additional enzyme were prepared automatically by beginning the program at the substrate addition point, remixing the diluted inhibitors, and beginning the reaction by addition of enzyme. In this way, all MMP assays were done using the same inhibitor dilutions.
(§4) Millipore Cytofluor II: Following incubation, the plate was read on a Cytofluor II fluorometric plate reader with excitation at 340 nm and emission at 395 nm with the gain set at 80.
(§5) Microfluorometric Reaction Buffer (MRB): Dilutions of test compounds, enzymes and P218 substrate for the microfluorometric assay were made in microfluorometric reaction buffer (MRB) consisting of 50 mM 2-(N-morpholino)ethanesulfonic acid (MES) at pH 6.5 with 10 mM CaCl2, 150 mM NaCl, 0.005 % Brij-35 and 1% DMSO.
(§6) MMP Microfluorometric Profiling Assay. The assay was done with a final P218 concentration of 6 µM, approximately 0.5 to 0.8 nM of activated MMP (one MMP per 96-well plate), and with variable inhibitor concentrations. The Hamilton MicroLab AT Plus® was programmed to serially dilute up to 11 compounds from a 2.5 mM stock (100% DMSO) to 10-times the final compound concentrations in the assay. Initially, the instrument delivered various amounts of microfluorometric reaction buffer (MRB) to a 96-tube rack of 1 mL Marsh dilution tubes. The instrument picked up 20 µL inhibitor (2.5 mM) and mixed it with buffer in row A of the Marsh rack, resulting in a 50 µM inhibitor concentration. The inhibitors were then serially diluted to 10, 5, 1, 0.2, 0.05 and 0.01 µM. […] The instrument re-mixed and loaded 14.5 µL of diluted compound from rows A to G in the Marsh rack to the corresponding rows in the microtiter plate.

MMP-9 = target: T2, MMP-9 (Homo sapiens, UniProt P14780); experiment: P218 quenched fluorescence assay (MMP Microfluorometric Profiling Assay), MMP-9; settings: for IC50: P218 substrate 6 µM, 25 min at 37 °C, pH 6.5; for inhibition at 5 µM: read-out: MMP-9 % inhibition at 5 µM, inhibitor at 5 µM, given as I = x %
T2 construct: made in house
T2 sequence (P14780 107-707 limits assumed): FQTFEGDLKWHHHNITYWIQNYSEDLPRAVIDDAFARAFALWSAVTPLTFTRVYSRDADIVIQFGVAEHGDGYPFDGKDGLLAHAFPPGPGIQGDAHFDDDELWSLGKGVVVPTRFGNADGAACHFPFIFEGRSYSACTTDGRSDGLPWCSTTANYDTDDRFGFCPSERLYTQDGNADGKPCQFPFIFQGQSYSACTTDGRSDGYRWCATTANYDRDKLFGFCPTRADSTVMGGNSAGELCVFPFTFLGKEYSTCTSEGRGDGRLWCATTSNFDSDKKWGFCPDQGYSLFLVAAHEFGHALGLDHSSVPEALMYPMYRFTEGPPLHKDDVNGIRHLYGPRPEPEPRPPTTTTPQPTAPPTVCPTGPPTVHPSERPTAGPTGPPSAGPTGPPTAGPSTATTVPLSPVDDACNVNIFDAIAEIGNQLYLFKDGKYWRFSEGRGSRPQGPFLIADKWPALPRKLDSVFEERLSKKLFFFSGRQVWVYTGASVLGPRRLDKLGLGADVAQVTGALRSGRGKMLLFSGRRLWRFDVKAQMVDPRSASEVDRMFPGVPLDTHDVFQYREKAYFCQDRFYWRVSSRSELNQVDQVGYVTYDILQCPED
From the text: as §1, §2
Human Recombinant Pro-MMP-9: Human recombinant pro-gelatinase B (pro-MMP-9) derived from U937 cDNA as described by S. M. Wilhelm et al., J. Biol. Chem., 264, 17213-17221 (1989) was expressed as the full-length form using a baculovirus protein expression system. The pro-enzyme was purified using methods previously described by M.S. Hibbs, et al., J. Biol. Chem., 260, 2493-500 (1984).
Activation of Pro-MMP-9 : Pro-MMP-9 (20 µg/mL) in an MMP-9 activation buffer consisting of 50 mM Tris at pH 7.4, 150 mM NaCl, 10 mM CaCl2 and 0.005% Brij-35 was activated by incubation with a 0.5 mM p-aminophenylmercuric acetate (APMA) for 3.5 h at 37 °C. The enzyme was dialyzed against the same buffer to remove APMA.
as §3, §4, §5
as §6, with “plate. […]” for “plate.”

MMP-2 = target: T3, MMP-2 (Homo sapiens, UniProt P08253); experiment: P218 quenched fluorescence assay (MMP Microfluorometric Profiling Assay), MMP-2; settings: for inhibition at 5 µM: read-out: MMP-2 % inhibition at 5 µM, inhibitor at 5 µM, given as I = x %
T3 sequence (P08253 110-660): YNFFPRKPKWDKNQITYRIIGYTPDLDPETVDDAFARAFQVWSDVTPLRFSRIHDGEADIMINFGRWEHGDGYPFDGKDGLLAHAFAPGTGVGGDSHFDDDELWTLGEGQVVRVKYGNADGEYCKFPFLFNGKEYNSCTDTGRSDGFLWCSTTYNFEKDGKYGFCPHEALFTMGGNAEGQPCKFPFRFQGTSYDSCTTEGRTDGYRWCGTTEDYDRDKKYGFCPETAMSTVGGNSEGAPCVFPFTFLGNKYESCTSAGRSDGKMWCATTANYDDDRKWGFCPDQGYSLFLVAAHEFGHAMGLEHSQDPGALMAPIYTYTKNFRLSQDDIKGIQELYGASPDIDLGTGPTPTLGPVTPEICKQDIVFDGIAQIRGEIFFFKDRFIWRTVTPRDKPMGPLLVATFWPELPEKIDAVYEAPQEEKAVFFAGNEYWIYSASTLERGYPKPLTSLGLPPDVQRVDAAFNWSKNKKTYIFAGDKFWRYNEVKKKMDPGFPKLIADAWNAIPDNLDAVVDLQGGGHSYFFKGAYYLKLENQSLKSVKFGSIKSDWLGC

[1] = P218 substrate 6 µM, 25 min at 37 °C, pH 6.5, read-out: MMP-2 IC50

T1 sequence (P08254 100-477): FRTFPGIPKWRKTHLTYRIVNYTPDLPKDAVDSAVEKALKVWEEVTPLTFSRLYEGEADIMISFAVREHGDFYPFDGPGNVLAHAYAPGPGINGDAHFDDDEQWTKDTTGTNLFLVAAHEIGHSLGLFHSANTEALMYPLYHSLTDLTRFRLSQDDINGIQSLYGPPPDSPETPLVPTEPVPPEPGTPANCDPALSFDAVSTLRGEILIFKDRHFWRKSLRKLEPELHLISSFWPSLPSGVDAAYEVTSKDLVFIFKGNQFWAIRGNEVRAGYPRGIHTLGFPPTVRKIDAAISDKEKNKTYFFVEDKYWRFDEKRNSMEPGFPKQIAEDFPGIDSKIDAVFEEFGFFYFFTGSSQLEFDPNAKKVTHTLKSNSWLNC

Structure (SMILES)	IC50 (MMP-3) [nM]	IC50 (MMP-9) [nM]	IC50 (MMP-2; [1]) [nM]	inhibition at 5 µM (MMP-3) [%]	IC50 (MMP-2) [nM]	inhibition at 5 µM (MMP-9) [%]	inhibition at 5 µM (MMP-2) [%]
O=C(CC(CCCc1ccccc1)C(=O)O)c1ccc(C#CCO)cc1 (racemic) [Example 1, 4-(4-(3-hydroxyprop-1-ynyl)phenyl)-4-oxo-2-(3-phenylpropyl)butyric acid]	3300	1850	485	–	–	–	–
O=C(CC(CCN1C(=O)c2ccccc2C1=O)C(=O)O)c1ccc(Br)cc1 (stereo not shown) [Compound B, 4-(4-bromophenyl)-4-oxo-2-(2-phthalimidoethyl) butyric acid, reference compound]	–	1450	–	46	2400	–	–
O=C(CC(CCCc1ccccc1)C(=O)O)c1ccccc1 (stereo not shown) [Compound C, 4-phenyl-4-oxo-2-(3-phenylpropyl)butyric acid, reference compound]	–	–	–	20	–	23	36
O=C(CC(CCN1C(=O)c2ccccc2C1=O)C(=O)O)c1ccccc1 (stereo not shown) [Compound D, 4-phenyl-4-oxo-2-(2-phthalimidoethyl)butyric acid, reference compound]	5000	1000	–	–	1400	–	–
CC(C)(C)[Si](C)(C)OCCCCC#Cc1ccc(C(=O)CC(CCN2C(=O)c3ccccc3C2=O)C(=O)O)cc1 (stereo not shown) [Compound E, reference compound]	5100	5050	1450	–	–	–	–
CCCCCCCCCCCCCCOc1ccc(C(=O)CC(CCN2C(=O)c3ccccc3C2=O)C(=O)O)cc1 (stereo not shown) [Compound F, 4-(4-tetradecyloxyphenyl)-4-oxo-2-(2-phthalimidoethyl)butyric acid, reference compound]	–	–	–	18	–	6	16
COc1ccc(C(=O)CC(CCN2C(=O)c3ccccc3C2=O)C(=O)O)cc1 (stereo not shown) [Compound G, 4-(4-methoxyphenyl)-4-oxo-2-(2-phthalimidoethyl)butyric acid, reference compound]	–	–	–	29	–	46	48
CCCCC#Cc1ccc(C(=O)CC(CCCc2ccccc2)C(=O)O)cc1 (stereo not shown) [Example 2, 4-(4-(hex-1-ynyl)phenyl)-4-oxo-2-(3-phenylpropyl)butyric acid]	1870	1570	–	–	460	–	–
O=C(CC(CCCc1ccccc1)C(=O)O)c1ccc(C#CCCCCO)cc1 (stereo not shown) [Example 3, 4-(4-(6-hydroxyhex-12-ynyl)phenyl)-4-oxo-2-(3-phenylpropyl)butyric acid]	–	4350	640	43	–	–	–
CCCCC#Cc1ccc(C(=O)CC(CCN2C(=O)c3ccccc3C2=O)C(=O)O)cc1 (stereo not shown) [Example 4]	125	20	–	–	42	–	–
O=C(CC(CCN1C(=O)c2ccccc2C1=O)C(=O)O)c1ccc(C#CCCCCO)cc1 (stereo not shown) [Example 5, 4-(4-(6-hydroxyhex-1-ynyl)phenyl)-4-oxo-2-(2-phthalimidoethyl)butyric acid]	870	150	–	–	92	–	–
O=C(CC(CCN1C(=O)c2ccccc2C1=O)C(=O)O)c1ccc(C#CCO)cc1 (stereo not shown) [Example 6, 4-(4-(3-hydroxyprop-1-ynyl)phenyl)-4-oxo-2-(2-phthalimidoethyl)butyric acid]	565	76	–	–	130	–	–
CCCCCCc1ccc(C(=O)CC(CCN2C(=O)c3ccccc3C2=O)C(=O)O)cc1 (stereo not shown) [Example 7, 4-(4-hexylphenyl)-4-oxo-2-(2-phthalimidoethyl) butyric acid]	1040	400	–	–	295	–	–
CCCCCCCOc1ccc(C(=O)CC(CCN2C(=O)c3ccccc3C2=O)C(=O)O)cc1 (stereo not shown) [Example 10, 4-(4-heptyloxyphenyl)-4-oxo-2-(2-phthalimidoethyl) butyric acid]	61	85	–	–	40	–	–
CCCCCCOc1ccc(C(=O)CC(CCN2C(=O)c3ccccc3C2=O)C(=O)O)cc1 (stereo not shown) [Example 11, 4-(4-hexyloxyphenyl)-4-oxo-2-(2-phthalimidoethyl) butyric acid]	114	68	–	–	79	–	–
CCCCCCCCCCOc1ccc(C(=O)CC(CCN2C(=O)c3ccccc3C2=O)C(=O)O)cc1 (stereo not shown) [Example 12, 4-(4-decyloxyphenyl)-4-oxo-2-(2-phthalimidoethyl) butyric acid]	–	360	–	–	–	–	–
O=C(CC(CCN1C(=O)c2ccccc2C1=O)C(=O)O)c1ccc(OCCOCc2ccccc2)cc1 (stereo not shown) [Example 13, 4-(4-(2-benzyloxyethoxy)phenyl)-4-oxo-2-(2-phthalimidoethyl)butyric acid]	82	355	–	–	53	–	–
